Results taken from patent publication US10463664B2, “Inhibitors of HSV nucleotidyl transferases and uses therefor” (Saint Louis University, priority 2013, dated 2019).

Key:
[1] = Single dose pharmacokinetic study after peroral ciclopirox olamine; type: in vivo, BALB/c mice; settings: 100 mg/kg oral gavage
Experimental: Single dose pharmacokinetic study after peroral treatment with ciclopirox Olamine. Six week old BALB/c mice were treated with 100 mg/kg ciclopirox olamine by oral gavage. This is well below the oral toxicity level in mice of 1740 mg/kg (Spectrum Chemicals MSDS). At 15 min, 30 min, 1 h, 3 h and 5 h post-treatment, blood was collected from pairs of mice and the serum separated. Mice were then euthanized and trigeminal ganglia (TG), brainstems and corneas were dissected and frozen until tissue extraction was performed and the extracts analyzed by mass spectroscopy. Standardization to ciclopirox olamine was achieved using compound spiked into a matrix of relevant tissue homogenate from untreated mice.
Ciclopirox olamine tissue concentrations (μM) after oral gavage. Ciclopirox olamine has previously been used to treat mice by oral gavage (25 to 40 mg/kg) for up to 60 days, but, assessment of penetration into the cornea and nervous system after oral gavage needed to be evaluated as well as tissue concentration over time to estimate appropriate dosing. In a single dose pharmacokinetic study, mice were treated with 100 mg/kg ciclopirox olamine by oral gavage. Pairs of mice were euthanized at various times post-treatment. Ciclopirox olamine concentrations in plasma, corneas, trigeminal ganglia and brainstems were determined by mass spectroscopy (FIG. 10). […] Ciclopirox olamine concentrations in cornea and nervous system tissues were only ˜5-fold lower than that in the plasma and remained above the estimated EC90 until 5 hours post-treatment.

[2] = mouse, in vivo; cited from earlier work
[3] = test system: HSV-1; test: Topical treatment of mice infected with HSV-1 on the cornea; type: in vivo; settings: summary statement
Experimental: Compounds were administered at 1 μg/eye in 10% DMSO. Two mice were treated with 10% DMSO as a negative control. The corneal surface was swabbed once per day on days 1, 2, 4 and 5 post-infection and titer of virus shed from the epithelium was determined by standard plaque assay. On the fifth day post-infection mice were euthanized and the trigeminal ganglia (TG) and brainstems were dissected. The tissues were disrupted and virus in them quantified by plaque assay. […] Weight of individual mice was recorded daily. […] Saline was a negative control. On the fifth day post-infection mice were euthanized and the trigeminal ganglia (TG) and brainstems were dissected. The tissues were disrupted and virus in them quantified by plaque assay.
Body weight was monitored daily post-infection as a sensitive indicator of overall health (FIG. 12).
Infected mice treated with saline served as a negative control.

[4] = Neutral red cytotoxicity assay in HFFs (10 day, with plaque reduction assay); type: cell-based, human; settings: human, uninfected primary human foreskin fibroblasts (HFFs), 10 day assay
Experimental: (§1) HCMV plaque reduction EC50 and toxicity assays. Low passage primary HFFs were infected with HCMV strain AD169 in the presence of serial dilutions of the compounds from 0.032 to 100 μM. Ten days later the monolayers were stained with 1% neutral red solution in PBS. After rinsing, plaques were counted using a stereomicroscope and the EC50 was interpolated from the data. Cytotoxicity was measured using a plate-based assay in which compounds were added to HFFs at 0.032 to 100 μM. At the end of the incubation period, plates were stained for 1 h with a neutral red solution in PBS. The stain was then removed, the plates rinsed in PBS and dried, and dye internalized by viable cells was determined at OD550. CC50 values were interpolated from the data.
(§2) Compounds #41, 46, 49, 55, 56, and 59 and the FDA-approved, anti-HCMV drug ganciclovir were subsequently evaluated with plaque reduction and toxicity assays in HFFs. HFFs were infected with HCMV in the presence of serial dilutions of the compounds. After 10 days the cultures were stained with neutral red and plaques were counted. Compound cytotoxicity for uninfected cells was determined in the same manner except that neutral red uptake by viable cells was measured by optical density. […] The TI values for the five NTS inhibitors of HCMV ranged from 5 for compound #46 to 17 for #55 and 59. Therefore, NTS inhibitors can suppress HCMV replication in addition to inhibiting the HSVs.

[5] = Neutral red cytotoxicity assay in uninfected HFFs (14 day, with CPE assay); type: cell-based, human; settings: human, uninfected human foreskin fibroblasts (HFFs)
Experimental: (§3) Anti-HCMV CPE inhibition and cytotoxicity assays. HFFs were infected with HCMV strain AD169 in the presence of serial dilutions of the compounds from 0.0192 to 60 μM. Fourteen days later the monolayers were stained with crystal violet, and retained cell density was quantified using a multiplate autoreader (BioTek). Cytotoxicity was measured the same way, except that the cells were uninfected and neutral red internalization by viable cells was measured.
(§4) Antiviral efficacy against HCMV. The ability of select HSV inhibitors to inhibit replication of another major human herpesvirus pathogen, human cytomegalovirus (HCMV) (65) was tested. This was based on the inhibitors strong suppression of HSV-1 and HSV-2 and the prediction that other members of the herpesvirus family would be sensitive to NTS inhibitors due to their shared DNA replication mechanism. Compounds #41, 46, 49, 55, 56, and 59 and the FDA-approved anti-HCMV drug ganciclovir were evaluated with crystal violet CPE and neutral red toxicity assays in HFFs. HFFs were infected with HCMV in the presence of serial dilutions of the compounds that were most inhibitory for HSVs. After 14 days the monolayers were stained and cell density was determined by OD reading. Compound cytotoxicity for uninfected cells was determined in the same manner except that neutral red uptake by viable cells was measured. […] The TI values for the four NTS inhibitors of HCMV ranged from 4 for compound #41 to 38 for #56. Therefore, NTS inhibitors can suppress HCMV replication in addition to inhibiting the HSVs.

[6] = test system: HCMV strain AD169; test: Anti-HCMV CPE inhibition assay (crystal violet) in HFFs; type: cell-based, human cytomegalovirus; settings: Human betaherpesvirus 5, AD169, 336 h, 14 days, read-out: EC50 against HCMV, CPE inhibition assay
Experimental: as §3, §4

[7] = test system: HCMV strain AD169; test: HCMV plaque reduction assay in HFFs; type: cell-based, human cytomegalovirus; settings: Human betaherpesvirus 5, AD169, 240 h, 10 days, read-out: EC50 against HCMV, plaque reduction assay
Experimental: as §1, §2

| SMILES | Concentrations in cornea and nervous system tissues, fold lower than plasma [1] [fold] | Plasma concentration at time of uptake [1] [µM] | Free plasma concentration after 5 hours, fold above the estimated EC90 against HSV-1 ([1]; 5 hours) [fold] | Oral toxicity level in mice [2] [mg/kg] | Overall health of mice as shown by maintenance of body weight [3] | CC50 at 10 days [4] [µM] | CC50 at 14 days [5] [µM] | EC50 [6] [µM] | EC50 [7] [µM] |
| --- | --- | --- | --- | --- | --- | --- | --- | --- | --- |
| Cc1cc(C2CCCCC2)n(O)c(=O)c1 [Compound 41-E, Ciclopirox ethanolamine] | ~5 | ~30 | 10 | 1740 | significantly improved the overall health |  |  |  |  |
| Nc1nc(O)c2ncn(COC(CO)CO)c2n1 [Ganciclovir, reference compound] |  |  |  |  |  | > 100 | > 300 | 0.33 | 3.2 |
